# Numbers after ± are expanded uncertainties.
# Assay: xn = mol fraction of the nth substance listed
# Conditions: 308.15 K, Liquid
smiles,measurement,setting,value
CCCCCCCCC [nonane] + C1CCCCC1,mass density,"18340 kPa, x2 = 0.7052",752.9 ± 1.2 kg/m3
same,mass density,"18340 kPa, x2 = 0.7993",760 ± 1.2 kg/m3
same,mass density,"18340 kPa, x2 = 0.9039",769.1 ± 1.2 kg/m3
same,mass density,"20370 kPa, x2 = 0",721.7 ± 1.5 kg/m3
same,mass density,"20370 kPa, x2 = 0.09303",724.7 ± 1.5 kg/m3
same,mass density,"20370 kPa, x2 = 0.2009",728.6 ± 1.5 kg/m3
same,mass density,"20370 kPa, x2 = 0.3051",732.8 ± 1.5 kg/m3
same,mass density,"20370 kPa, x2 = 0.417",737.8 ± 1.4 kg/m3
same,mass density,"20370 kPa, x2 = 0.512",742.4 ± 1.4 kg/m3
same,mass density,"20370 kPa, x2 = 0.5996",747.6 ± 1.4 kg/m3
same,mass density,"20370 kPa, x2 = 0.7052",754.4 ± 1.3 kg/m3
same,mass density,"20370 kPa, x2 = 0.7993",761.5 ± 1.3 kg/m3
same,mass density,"20370 kPa, x2 = 0.9039",770.6 ± 1.2 kg/m3
same,mass density,"22390 kPa, x2 = 0",723.1 ± 1.6 kg/m3
same,mass density,"22390 kPa, x2 = 0.09303",726.1 ± 1.6 kg/m3
same,mass density,"22390 kPa, x2 = 0.2009",730.1 ± 1.6 kg/m3
same,mass density,"22390 kPa, x2 = 0.3051",734.3 ± 1.5 kg/m3
same,mass density,"22390 kPa, x2 = 0.417",739.3 ± 1.5 kg/m3
same,mass density,"22390 kPa, x2 = 0.512",743.9 ± 1.5 kg/m3
same,mass density,"22390 kPa, x2 = 0.5996",749.1 ± 1.4 kg/m3
same,mass density,"22390 kPa, x2 = 0.7052",755.9 ± 1.4 kg/m3
same,mass density,"22390 kPa, x2 = 0.7993",763 ± 1.3 kg/m3
same,mass density,"22390 kPa, x2 = 0.9039",772.1 ± 1.3 kg/m3
same,mass density,"24420 kPa, x2 = 0",724.5 ± 1.7 kg/m3
same,mass density,"24420 kPa, x2 = 0.09303",727.5 ± 1.7 kg/m3
same,mass density,"24420 kPa, x2 = 0.2009",731.5 ± 1.6 kg/m3
same,mass density,"24420 kPa, x2 = 0.3051",735.7 ± 1.6 kg/m3
same,mass density,"24420 kPa, x2 = 0.417",740.7 ± 1.6 kg/m3
same,mass density,"24420 kPa, x2 = 0.512",745.3 ± 1.5 kg/m3
same,mass density,"24420 kPa, x2 = 0.5996",750.5 ± 1.5 kg/m3
same,mass density,"24420 kPa, x2 = 0.7052",757.4 ± 1.5 kg/m3
same,mass density,"24420 kPa, x2 = 0.7993",764.4 ± 1.4 kg/m3
same,mass density,"24420 kPa, x2 = 0.9039",773.6 ± 1.4 kg/m3
same,mass density,"26450 kPa, x2 = 0",725.9 ± 1.8 kg/m3
same,mass density,"26450 kPa, x2 = 0.09303",728.9 ± 1.8 kg/m3
same,mass density,"26450 kPa, x2 = 0.2009",732.9 ± 1.7 kg/m3
same,mass density,"26450 kPa, x2 = 0.3051",737.1 ± 1.7 kg/m3
same,mass density,"26450 kPa, x2 = 0.417",742.1 ± 1.6 kg/m3
same,mass density,"26450 kPa, x2 = 0.512",746.8 ± 1.6 kg/m3
same,mass density,"26450 kPa, x2 = 0.5996",751.9 ± 1.6 kg/m3
same,mass density,"26450 kPa, x2 = 0.7052",758.8 ± 1.5 kg/m3
same,mass density,"26450 kPa, x2 = 0.7993",765.8 ± 1.5 kg/m3
same,mass density,"26450 kPa, x2 = 0.9039",775.1 ± 1.4 kg/m3
same,mass density,"28470 kPa, x2 = 0",727.2 ± 1.9 kg/m3
same,mass density,"28470 kPa, x2 = 0.09303",730.3 ± 1.8 kg/m3
same,mass density,"28470 kPa, x2 = 0.2009",734.2 ± 1.8 kg/m3
same,mass density,"28470 kPa, x2 = 0.3051",738.4 ± 1.8 kg/m3
same,mass density,"28470 kPa, x2 = 0.417",743.5 ± 1.7 kg/m3
same,mass density,"28470 kPa, x2 = 0.512",748.1 ± 1.7 kg/m3
same,mass density,"28470 kPa, x2 = 0.5996",753.3 ± 1.6 kg/m3
same,mass density,"28470 kPa, x2 = 0.7052",760.2 ± 1.6 kg/m3
same,mass density,"28470 kPa, x2 = 0.7993",767.2 ± 1.5 kg/m3
same,mass density,"28470 kPa, x2 = 0.9039",776.5 ± 1.5 kg/m3
same,mass density,"29490 kPa, x2 = 0",727.8 ± 1.9 kg/m3
same,mass density,"29490 kPa, x2 = 0.09303",730.9 ± 1.9 kg/m3
same,mass density,"29490 kPa, x2 = 0.2009",734.9 ± 1.8 kg/m3
same,mass density,"29490 kPa, x2 = 0.3051",739.1 ± 1.8 kg/m3
same,mass density,"29490 kPa, x2 = 0.417",744.1 ± 1.7 kg/m3
same,mass density,"29490 kPa, x2 = 0.512",748.7 ± 1.7 kg/m3
same,mass density,"29490 kPa, x2 = 0.5996",754 ± 1.7 kg/m3
same,mass density,"29490 kPa, x2 = 0.7052",760.9 ± 1.6 kg/m3
same,mass density,"29490 kPa, x2 = 0.7993",767.9 ± 1.6 kg/m3
same,mass density,"29490 kPa, x2 = 0.9039",777.2 ± 1.5 kg/m3
same,mass density,"30500 kPa, x2 = 0",728.5 ± 1.9 kg/m3
same,mass density,"30500 kPa, x2 = 0.09303",731.6 ± 1.9 kg/m3
same,mass density,"30500 kPa, x2 = 0.2009",735.6 ± 1.9 kg/m3
same,mass density,"30500 kPa, x2 = 0.3051",739.8 ± 1.8 kg/m3
same,mass density,"30500 kPa, x2 = 0.417",744.8 ± 1.8 kg/m3
same,mass density,"30500 kPa, x2 = 0.512",749.4 ± 1.7 kg/m3
same,mass density,"30500 kPa, x2 = 0.5996",754.7 ± 1.7 kg/m3
same,mass density,"30500 kPa, x2 = 0.7052",761.6 ± 1.7 kg/m3
same,mass density,"30500 kPa, x2 = 0.7993",768.6 ± 1.6 kg/m3
same,mass density,"30500 kPa, x2 = 0.9039",777.9 ± 1.5 kg/m3
same,mass density,"32530 kPa, x2 = 0",729.8 ± 2 kg/m3
same,mass density,"32530 kPa, x2 = 0.09303",732.9 ± 2 kg/m3
same,mass density,"32530 kPa, x2 = 0.2009",736.9 ± 1.9 kg/m3
same,mass density,"32530 kPa, x2 = 0.3051",741.1 ± 1.9 kg/m3
same,mass density,"32530 kPa, x2 = 0.417",746.1 ± 1.9 kg/m3
same,mass density,"32530 kPa, x2 = 0.512",750.8 ± 1.8 kg/m3
same,mass density,"32530 kPa, x2 = 0.5996",756 ± 1.8 kg/m3
same,mass density,"32530 kPa, x2 = 0.7052",762.9 ± 1.7 kg/m3
same,mass density,"32530 kPa, x2 = 0.7993",770 ± 1.7 kg/m3
same,mass density,"32530 kPa, x2 = 0.9039",779.3 ± 1.6 kg/m3
same,mass density,"34550 kPa, x2 = 0",731.1 ± 2.1 kg/m3
same,mass density,"34550 kPa, x2 = 0.09303",734.2 ± 2.1 kg/m3
same,mass density,"34550 kPa, x2 = 0.2009",738.2 ± 2 kg/m3
same,mass density,"34550 kPa, x2 = 0.3051",742.4 ± 2 kg/m3
same,mass density,"34550 kPa, x2 = 0.417",747.4 ± 1.9 kg/m3
same,mass density,"34550 kPa, x2 = 0.512",752 ± 1.9 kg/m3
same,mass density,"34550 kPa, x2 = 0.5996",757.3 ± 1.8 kg/m3
same,mass density,"34550 kPa, x2 = 0.7052",764.3 ± 1.8 kg/m3
same,mass density,"34550 kPa, x2 = 0.7993",771.3 ± 1.7 kg/m3
same,mass density,"34550 kPa, x2 = 0.9039",780.6 ± 1.7 kg/m3
same,mass density,"36580 kPa, x2 = 0",732.4 ± 2.2 kg/m3
same,mass density,"36580 kPa, x2 = 0.09303",735.4 ± 2.1 kg/m3
same,mass density,"36580 kPa, x2 = 0.2009",739.5 ± 2.1 kg/m3
same,mass density,"36580 kPa, x2 = 0.3051",743.7 ± 2 kg/m3
same,mass density,"36580 kPa, x2 = 0.417",748.7 ± 2 kg/m3
same,mass density,"36580 kPa, x2 = 0.512",753.3 ± 2 kg/m3
same,mass density,"36580 kPa, x2 = 0.5996",758.6 ± 1.9 kg/m3
same,mass density,"36580 kPa, x2 = 0.7052",765.6 ± 1.9 kg/m3
same,mass density,"36580 kPa, x2 = 0.7993",772.6 ± 1.8 kg/m3
same,mass density,"36580 kPa, x2 = 0.9039",781.9 ± 1.7 kg/m3
same,mass density,"38600 kPa, x2 = 0",733.6 ± 2.2 kg/m3
same,mass density,"38600 kPa, x2 = 0.09303",736.7 ± 2.2 kg/m3
same,mass density,"38600 kPa, x2 = 0.2009",740.8 ± 2.2 kg/m3
same,mass density,"38600 kPa, x2 = 0.3051",745 ± 2.1 kg/m3
same,mass density,"38600 kPa, x2 = 0.417",750 ± 2.1 kg/m3
same,mass density,"38600 kPa, x2 = 0.512",754.6 ± 2 kg/m3
same,mass density,"38600 kPa, x2 = 0.5996",759.9 ± 2 kg/m3
same,mass density,"38600 kPa, x2 = 0.7052",766.9 ± 1.9 kg/m3
same,mass density,"38600 kPa, x2 = 0.7993",773.9 ± 1.9 kg/m3
same,mass density,"38600 kPa, x2 = 0.9039",783.3 ± 1.8 kg/m3
same,mass density,"39620 kPa, x2 = 0",734.3 ± 2.3 kg/m3
same,mass density,"39620 kPa, x2 = 0.09303",737.4 ± 2.2 kg/m3
same,mass density,"39620 kPa, x2 = 0.2009",741.4 ± 2.2 kg/m3
same,mass density,"39620 kPa, x2 = 0.3051",745.6 ± 2.2 kg/m3
same,mass density,"39620 kPa, x2 = 0.417",750.6 ± 2.1 kg/m3
same,mass density,"39620 kPa, x2 = 0.512",755.3 ± 2.1 kg/m3
same,mass density,"39620 kPa, x2 = 0.5996",760.6 ± 2 kg/m3
same,mass density,"39620 kPa, x2 = 0.7052",767.5 ± 1.9 kg/m3
same,mass density,"39620 kPa, x2 = 0.7993",774.5 ± 1.9 kg/m3
same,mass density,"39620 kPa, x2 = 0.9039",783.9 ± 1.8 kg/m3
